Data taken from paper PMC2195891 (2006).

System: human telomeric quadruplex (Htelo), 5'-biotin SPR strand (DNA, G4) GTTAGGGTTAGGGTTAGGGTTAGGGTTAGG
Test: SPR, equilibrium response
Details: K+ 100 mM (KCl), 50 mM Tris-HCl pH 7.4

Row | KD (up to 6.25 μM) [µM] | KD (up to 25 μM) [µM] | SMILES
1 | 0.63 ± 0.08 |  | C[n+]1ccc(-c2c3nc(c(-c4cc[n+](C)cc4)c4ccc([nH]4)c(-c4cc[n+](C)cc4)c4nc(c(-c5cc[n+](C)cc5)c5ccc2[nH]5)C=C4)C=C3)cc1
2 |  | 5.88 ± 0.90 | C[n+]1ccc(-c2c3nc(c(-c4cc[n+](C)cc4)c4ccc([nH]4)c(-c4cc[n+](C)cc4)c4nc(cc5ccc2[nH]5)C=C4)C=C3)cc1
3 |  | 18.90 ± 2.80 | C[n+]1ccc(-c2c3nc(c(-c4cc[n+](C)cc4)c4ccc(cc5nc(cc6ccc2[nH]6)C=C5)[nH]4)C=C3)cc1
4 | 0.83 ± 0.10 |  | C[n+]1ccc(-c2c3nc(cc4ccc([nH]4)c(-c4cc[n+](C)cc4)c4nc(cc5ccc2[nH]5)C=C4)C=C3)cc1
